{"source": "patent US5670538A", "about": "“Use of prodelphinidins for obtaining medicaments intended for the treatment of arthrosis” (Laboratoires Dolisos, priority 1992, dated 1997)", "key": {"[1]": {"system": "human articular chondrocytes", "test": "Radioimmunoassay of type II collagen (coll. II) produced in tridimensional culture of human chondrocytes", "assay_type": "cell-based", "excerpt": "The model used for testing the proanthocyanidols, namely the tridimensional culture of human chondrocytes allows chondrorepair to be quantified by the production of matrix substances: type II collagen, proteoglycans, and chondroresorption by the reduction in the levels of prostaglandin E2 and of OH° and O°2 type free radicals produced.\n(§1) 1. Tridimensional culture of human chondrocytes\n(§2) The technique used has been described in detail (Bassleer et al., 1986).\n(§3) Briefly, human articular chondrocytes are cultivated in DMEM (Dulbecco's Modification of Eagle's Medium--ICN--Gand, Belgium) with either Ultroser G 1% (GIBCO, Gand, Belgium) or 10% of foetal calf serum (ICN--Gand--Belgium), and 50 μg of ascorbic acid/ml added to it. The cartilage originates from the apparently normal zone of heads of human femur suffering from arthrosis, immediately after an operation carried out to insert a total hip prosthesis; it can also originate from the head of a healthy femur, but which has undergone a traumatism and has had to be replaced. This cartilage is then digested by clostridial collagenase 1 mg/ml (Boehringer-Mannheim, Germany) in a buffer (NaCl 120 mM, CaCl2 1 mM, KCl 5 mM, KH2 PO4 1 mM, NaHCO3 25 mM, glucose 2 mM and Hepes 30 mM, pH 7.4) for 24 hours. After 6 successive washings and centrifugations, the chondrocytes, isolated from their matrix, are cultured in flasks (10^6 cells/2 ml of culture medium) placed on a gyrator (10 rpm). The cultures are kept at 37° C. in an atmosphere of air 95%-CO2 5% (Bassleer et al., 1986). Cultivated under these conditions, after 4 to 5 days the chondrocytes form a tridimensional cluster in each flask. These clusters, which at first have a flocculent appearance, then tend to condense during the culture. After two weeks, their diameter is, in general, from 1 to 2 mm.\n(§4) The fresh weight of the clusters increases with the duration of the culture, above all during the few first days.\n3. Radioimmunoassay of type II collagen (coll. II)\nThe method for the radioimmunoassay of coll. II has been described in detail (Henrotin et al., 1990). The coll. II is extracted from human articular cartilage according to the technique described by Herbage et al. (1977). The antiserum against coll. II was obtained from rabbits according to the technique of Vaitukaitis et al. (1971).\nThe assay is carried out by sequential saturation. In the first instance, the radioimmunoassay is carried out in a 0.3 ml volume consisting of 0.2 ml of incubation buffer (PBS-50 mM PO4, 300 mM NaCl, 5 g/l BSA (W/V), 6.7 mM sodium azide, pH 7.4) containing the reference coll. II (0.5 to 500 ng) or the sample to be assayed and 0.1 ml of anti-coll. II antiserum from guinea pigs diluted to 1/5000 (24 hours at 4° C.). In the second instance, 0.1 ml of ^125 I-coll. II tracer labelled according to the iodogenic technique (Salacynski et al., 1979 and diluted so as to obtain 20,000 cpm/0.1 ml) is added. After 24 hours at 4° C., the collagen-antibody complexes are separated from the free radioactive coll. II by the double antibody system (Franchimont et al. 1983). Sequential saturation gives a sensitivity of 3 ng/tube. The accuracy of the method is 10%. The coefficients of the intra- and inter assay variation are 10% and 20% respectively.\nThe assay is specific to human articular type II collagen.\nNo cross reaction is obtained with bovine collagen of type I, III or IV.\nThe culture media are stored at -20° C. in the presence of enzymatic inhibitors (Oegema et al., 1975). These media are assayed by the radio immunological method without any treatment beforehand. The chondrocyte clusters are washed and dissociated with ultrasonics according to the method described for the assay of the PGs. After centrifugation (1500 rpm, 10 minutes), the residue is extracted using 500 mM acetic acid under agitation for 24 hours at 4° C. The supernatant of the homogenate and the extract of the residue are mixed together and assayed after equilibration at pH 7.4 using 4M NaOH.\nThe recovery of coll. […]"}, "[2]": {"system": "human articular chondrocytes", "test": "Synthesis of DNA by incorporation of 3H-thymidine in the chondrocytes, index of cell proliferation", "assay_type": "cell-based", "details": "1, 10 and 100 pg/ml (so in the source); relative to control values", "procedure": "as §1, §2, §3, §4\n5. Analysis of the synthesis of DNA by measurement of the incorporation of ^3 H-thymidine\nAfter different culture durations, the chondrocytes are cultivated in nutritive medium with the addition of 2 uCi/ml (5 Ci/mmole) of methyl ^3 H-thymidine (^3 H-TDN) (Amersham, Brussels, Belgium) for 24 hours. […]\nThe radioactivity incorporated in the cluster is then measured using a beta scintillation counter."}, "ferricytochrome C": {"system": "ferricytochrome C", "test": "Control experiments: direct reduction of ferricytochrome C by the product itself", "assay_type": "biochemical", "details": "effect not quantifiable", "excerpt": "This effect not being quantifiable, no conclusion can consequently be drawn on a possible inhibiting effect of these products on the production of the superoxide anion by the activated PMNs."}}, "data": [{"smiles": "Oc1cc(O)c2c(c1)O[C@H](c1cc(O)c(O)c(O)c1)[C@@H](O)[C@@H]2c1c(O)cc(O)c2c1O[C@H](c1cc(O)c(O)c(O)c1)[C@H](O)C2", "note": "[Substance Ia, GC-(4 alpha→8) EGC]", "values": [{"measurement": "Average concentrations (m ± SD) of type II collagen in the clusters of chondrocytes at the end of 12 days of culture", "setting": "[1]; 1% Ultroser G, 1 μg/ml", "result": "105 ± 13 ng per μg of DNA"}, {"measurement": "Cumulative release of coll.II over 12 days, Abs", "setting": "[1]; 1% Ultroser G, 1 μg/ml", "result": 482, "unit": "ng/μg DNA/12 days"}, {"measurement": "Average concentrations (m ± SD) of type II collagen in the clusters of chondrocytes at the end of 12 days of culture", "setting": "[1]; 1% Ultroser G, 10 μg/ml", "result": "165 ± 21 ng per μg of DNA"}, {"measurement": "Cumulative release of coll.II over 12 days, Abs", "setting": "[1]; 1% Ultroser G, 10 μg/ml", "result": 787, "unit": "ng/μg DNA/12 days"}, {"measurement": "Average concentrations (m ± SD) of type II collagen in the clusters of chondrocytes at the end of 12 days of culture", "setting": "[1]; 1% Ultroser G, 100 μg/ml", "result": "175 ± 19 ng per μg of DNA"}, {"measurement": "Cumulative release of coll.II over 12 days, Abs", "setting": "[1]; 1% Ultroser G, 100 μg/ml", "result": 962, "unit": "ng/μg DNA/12 days"}, {"measurement": "Coll. II released in the culture medium", "setting": "[1]; 1% Ultroser G, culture time 0-4 days, 1 μg/ml", "result": "233 ± 25", "unit": "ng/μg DNA/96 h"}, {"measurement": "Coll. II released in the culture medium", "setting": "[1]; 1% Ultroser G, culture time 0-4 days, 10 μg/ml", "result": "301 ± 52", "unit": "ng/μg DNA/96 h"}, {"measurement": "Coll. II released in the culture medium", "setting": "[1]; 1% Ultroser G, culture time 0-4 days, 100 μg/ml", "result": "462 ± 51", "unit": "ng/μg DNA/96 h"}, {"measurement": "Coll. II released in the culture medium", "setting": "[1]; 1% Ultroser G, culture time 4-8 days, 1 μg/ml", "result": "147 ± 19", "unit": "ng/μg DNA/96 h"}, {"measurement": "Coll. II released in the culture medium", "setting": "[1]; 1% Ultroser G, culture time 4-8 days, 10 μg/ml", "result": "259 ± 22", "unit": "ng/μg DNA/96 h"}, {"measurement": "Coll. II released in the culture medium", "setting": "[1]; 1% Ultroser G, culture time 4-8 days, 100 μg/ml", "result": "311 ± 41", "unit": "ng/μg DNA/96 h"}, {"measurement": "Coll. II released in the culture medium", "setting": "[1]; 1% Ultroser G, culture time 8-12 days, 1 μg/ml", "result": "102.2 ± 10.96", "unit": "ng/μg DNA/96 h"}, {"measurement": "Coll. II released in the culture medium", "setting": "[1]; 1% Ultroser G, culture time 8-12 days, 10 μg/ml", "result": "147 ± 21", "unit": "ng/μg DNA/96 h"}, {"measurement": "Coll. II released in the culture medium", "setting": "[1]; 1% Ultroser G, culture time 8-12 days, 100 μg/ml", "result": "109 ± 23", "unit": "ng/μg DNA/96 h"}, {"measurement": "activity at 1 µg/mL", "setting": "[1]; Homo sapiens, Chondrocyte, 288 h, 1% Ultroser G, 1 μg/ml, control = 100, read-out: Cumulative release of coll.II over 12 days, %", "result": 102, "unit": "%"}, {"measurement": "activity at 10 µg/mL", "setting": "[1]; Homo sapiens, Chondrocyte, 288 h, 1% Ultroser G, 10 μg/ml, control = 100, read-out: Cumulative release of coll.II over 12 days, %", "result": 166, "unit": "%"}, {"measurement": "activity at 100 µg/mL", "setting": "[1]; Homo sapiens, Chondrocyte, 288 h, 1% Ultroser G, 100 μg/ml, control = 100, read-out: Cumulative release of coll.II over 12 days, %", "result": 202, "unit": "%"}, {"measurement": "Type II collagen in the culture media, effect in words", "setting": "[1]; foetal calf serum, 10 and 100 μg/ml", "result": "increases"}, {"measurement": "Coll. II released in the culture medium", "setting": "[1]; foetal calf serum, Table 18, 0-4 days, 10 μg/ml", "result": "44.3 ± 2.30", "unit": "ng/μg DNA/96 H"}, {"measurement": "Coll. II released in the culture medium", "setting": "[1]; foetal calf serum, Table 18, 0-4 days, 100 μg/ml", "result": "77.0 ± 15.58", "unit": "ng/μg DNA/96 H"}, {"measurement": "Coll. II released in the culture medium", "setting": "[1]; foetal calf serum, Table 18, 4-8 days, 10 μg/ml", "result": "34.0 ± 3.11", "unit": "ng/μg DNA/96 H"}, {"measurement": "Coll. II released in the culture medium", "setting": "[1]; foetal calf serum, Table 18, 4-8 days, 100 μg/ml", "result": "47.2 ± 5.19", "unit": "ng/μg DNA/96 H"}, {"measurement": "Coll. II released in the culture medium", "setting": "[1]; foetal calf serum, Table 19, 0-4 days, 10 μg/ml", "result": "37.4 ± 1.98", "unit": "ng/μg DNA/96 H"}, {"measurement": "Coll. II released in the culture medium", "setting": "[1]; foetal calf serum, Table 19, 0-4 days, 100 μg/ml", "result": "44.2 ± 11.6", "unit": "ng/μg DNA/96 H"}, {"measurement": "Coll. II released in the culture medium", "setting": "[1]; foetal calf serum, Table 19, 4-8 days, 10 μg/ml", "result": "25.3 ± 2.20", "unit": "ng/μg DNA/96 H"}, {"measurement": "Coll. II released in the culture medium", "setting": "[1]; foetal calf serum, Table 19, 4-8 days, 100 μg/ml", "result": "38.2 ± 5.71", "unit": "ng/μg DNA/96 H"}, {"measurement": "Coll. II in the clusters", "setting": "[1]; foetal calf serum, experiment 397, 4-8 days, 10 μg/ml", "result": "78.8 ± 10.5", "unit": "ng/μg DNA"}, {"measurement": "Coll. II in the clusters", "setting": "[1]; foetal calf serum, experiment 397, 4-8 days, 100 μg/ml", "result": "114.7 ± 10.55", "unit": "ng/μg DNA"}, {"measurement": "Collagen II in the clusters, effect in words", "setting": "[1]; foetal calf serum, experiment 397, 10 and 100 μg/ml", "result": "An increase in collagen II is observed"}, {"measurement": "Incorporation of 3H thymidine in the chondrocytes", "setting": "[2]", "result": "None of the substances Ia, lb and Ic modifies the incorporation"}, {"measurement": "Direct reduction of ferricytochrome C", "setting": "ferricytochrome C", "result": "powerful reducers of ferricytochrome C"}]}]}
